From US12139520B2 (priority 2020, dated 2024)
Bridge positions count the residues as written; N and C are the ends. Square brackets hold non-standard residues; d marks the D form. Peptide text beside a SMILES is read from it. Hyp = O=C(O)[C@@H]1C[C@@H](O)CN1; Cit = NC(=O)NCCC[C@H](N)C(=O)O

Assays:
hAM1 receptor = hAM1 receptor (Homo sapiens, UniProt O60895+Q16602); assay: cAMP assay for in vitro receptor activation, hAM1-R; format: cell-based; settings: cAMP assay, hAM1 receptor; read-out: hAM1R EC50
Outline: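 Stable hAM1 cells (monoclonal) plated 8000/well; buffer DPBS, 0.05% casein, 0.5 mM IBMX; cAMP read-out.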

hAMY3 receptor = molecular target: T1, hAMY3 receptor (Homo sapiens, UniProt O60896+P30988); assay: cAMP assay for in vitro receptor activation, hAMY3-R; format: cell-based; settings: cAMP assay, hAMY3 receptor; read-out: hAMY3R EC50
T1 sequence (P30988 25-474): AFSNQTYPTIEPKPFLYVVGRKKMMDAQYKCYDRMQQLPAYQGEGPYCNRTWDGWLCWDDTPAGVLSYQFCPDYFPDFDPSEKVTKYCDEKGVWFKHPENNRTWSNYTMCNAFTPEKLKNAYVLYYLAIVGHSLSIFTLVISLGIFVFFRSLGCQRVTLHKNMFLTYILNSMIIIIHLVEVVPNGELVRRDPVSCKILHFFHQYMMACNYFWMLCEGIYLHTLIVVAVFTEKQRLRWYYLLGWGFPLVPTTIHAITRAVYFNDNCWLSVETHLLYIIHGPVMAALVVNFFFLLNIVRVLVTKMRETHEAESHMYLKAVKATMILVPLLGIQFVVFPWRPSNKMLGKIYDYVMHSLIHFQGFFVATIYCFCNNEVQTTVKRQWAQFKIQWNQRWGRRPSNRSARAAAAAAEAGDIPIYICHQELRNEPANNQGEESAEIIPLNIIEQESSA
T1 sequence (O60896 24-148 partner): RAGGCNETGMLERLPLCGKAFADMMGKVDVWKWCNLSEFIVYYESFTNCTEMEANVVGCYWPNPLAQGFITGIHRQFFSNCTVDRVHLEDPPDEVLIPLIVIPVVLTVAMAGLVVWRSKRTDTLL
Outline: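 Accumulated cAMP was detected by time-resolved FRET one hour after reagent addition. Beforehand, hAMY3-R-overexpressing monoclonal cells (2000/well, DPBS, 0.05% casein, 0.5 mM IBMX) received graded doses of compound for 30 min at room temperature; human amylin served as positive control.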

[1] = Physical stability of peptide analogues (Thioflavin T fibrillation); format: physicochemical; settings: maximum ThT signal normalized between hAMY maximum and buffer background; 40° C., shaking, four days; pH 7 per table title
Outline: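 ThT fluorescence (450 nm excitation, 480 nm emission; 4 μM dye) was read every 10 min over four days at 40° C under 700 rpm shaking stress, after 1 h in pH 4 acetate or pH 7 phosphate (50 mM). Peak smoothed signal expressed as percent, scaled between buffer background and hAMY maximum.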

hAM1 receptor, sequence (Q16602 23-461): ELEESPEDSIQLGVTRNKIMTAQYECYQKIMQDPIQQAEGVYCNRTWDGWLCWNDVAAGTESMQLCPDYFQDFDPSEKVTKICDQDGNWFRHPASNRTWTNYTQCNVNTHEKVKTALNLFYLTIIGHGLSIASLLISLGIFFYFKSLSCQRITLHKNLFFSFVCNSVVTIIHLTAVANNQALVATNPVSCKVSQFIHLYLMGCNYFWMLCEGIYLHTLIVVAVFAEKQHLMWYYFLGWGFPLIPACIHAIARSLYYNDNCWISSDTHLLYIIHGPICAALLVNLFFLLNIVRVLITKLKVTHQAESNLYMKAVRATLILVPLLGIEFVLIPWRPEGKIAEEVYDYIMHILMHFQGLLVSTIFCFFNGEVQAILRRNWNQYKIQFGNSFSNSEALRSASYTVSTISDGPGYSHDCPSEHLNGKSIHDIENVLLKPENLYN
hAM1 receptor, sequence (O60895 43-175 partner): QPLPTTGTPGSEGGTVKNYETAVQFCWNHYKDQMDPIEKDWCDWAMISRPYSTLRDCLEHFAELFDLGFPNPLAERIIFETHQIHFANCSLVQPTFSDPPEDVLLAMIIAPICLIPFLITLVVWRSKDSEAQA

EC50 (hAM1 receptor) | EC50 (hAMY3 receptor) | Max ThT signal (%) [1] | SMILES
> 5000 nM | 0.082 nM | 8.800% | CC[C@H](C)[C@H](NC(=O)[C@H](CCC(N)=O)NC(=O)[C@H](Cc1c[nH]cn1)NC(=O)[C@H](C)NC(=O)[C@H](CC(C)C)NC(=O)[C@H](CCCNC(=N)N)NC(=O)[C@H](CCC(N)=O)NC(=O)[C@@H](NC(=O)[C@@H](NC(=O)[C@@H]1CSSC[C@H](NC(=O)[C@@H](N)CCCCN)C(=O)N[C@@H](CC(N)=O)C(=O)N[C@@H]([C@@H](C)O)C(=O)N[C@@H](C)C(=O)N[C@@H]([C@@H](C)O)C(=O)N1)[C@@H](C)O)C(C)C)C(=O)N[C@@H](Cc1ccc(O)cc1)C(=O)N[C@@H](Cc1ccccc1)C(=O)N[C@H](C(=O)N[C@@H](CC(=O)O)C(=O)N[C@@H](CCCCN)C(=O)N[C@@H](CC(=O)O)C(=O)N[C@@H](CCCCN)C(=O)N[C@@H](CC(=O)O)C(=O)N[C@@H](CC(N)=O)C(=O)N[C@H](C(=O)N[C@@H](C)C(=O)N1CCC[C@H]1C(=O)N1CCC[C@H]1C(=O)N[C@H](C(=O)N[C@@H](CC(N)=O)C(=O)N[C@H](C(=O)NCC(=O)N[C@@H](CO)C(=O)N[C@@H](CC(N)=O)C(=O)NCC(=O)N1C[C@H](O)C[C@H]1C(N)=O)C(C)C)[C@@H](C)O)C(C)C)[C@@H](C)O [compound 181] (H-KCNTATCTVQRLAHQIYFTDKDKDNVAPPTNVGSNG[Hyp]-NH2; disulfide 2-7; N-terminus assumed)
> 5000 nM | 0.02 nM | 19.850% | CC[C@H](C)[C@H](NC(=O)[C@H](CCC(N)=O)NC(=O)[C@H](Cc1c[nH]cn1)NC(=O)[C@H](C)NC(=O)[C@H](CC(C)C)NC(=O)[C@H](CCCNC(N)=O)NC(=O)[C@H](CCC(N)=O)NC(=O)[C@@H](NC(=O)[C@@H](NC(=O)[C@@H]1CSSC[C@H](NC(=O)CN)C(=O)N[C@@H](CCCNC(=N)N)C(=O)N[C@@H](Cc2ccccc2)C(=O)NCC(=O)N[C@@H]([C@@H](C)O)C(=O)N1)[C@@H](C)O)C(C)C)C(=O)N[C@@H](Cc1ccc(O)cc1)C(=O)N[C@@H](CCC(N)=O)C(=O)N[C@@H](Cc1ccccc1)C(=O)N[C@H](C(=O)N[C@@H](CC(=O)O)C(=O)N[C@@H](CCCCN)C(=O)N[C@@H](CC(=O)O)C(=O)N[C@@H](CCCCN)C(=O)N[C@@H](CC(=O)O)C(=O)N[C@@H](CC(N)=O)C(=O)N[C@H](C(=O)N[C@@H](C)C(=O)N1CCC[C@H]1C(=O)N[C@@H](CCCNC(=N)N)C(=O)N[C@H](C(=O)N[C@@H](CCCCN)C(=O)N[C@H](C(=O)N[C@@H](CO)C(=O)N1CCC[C@H]1C(=O)N[C@@H](CC(N)=O)C(=O)NCC(=O)N1C[C@H](O)C[C@H]1C(N)=O)[C@@H](C)CC)[C@@H](C)O)C(C)C)[C@@H](C)O [compound 275] (H-GCRFGTCTVQ[Cit]LAHQIYQFTDKDKDNVAPRTKISPNG[Hyp]-NH2; disulfide 2-7; N-terminus assumed)
> 5000 nM | 0.034 nM | 22.650% | CC[C@H](C)[C@H](NC(=O)[C@H](CCC(N)=O)NC(=O)[C@H](Cc1c[nH]cn1)NC(=O)[C@H](C)NC(=O)[C@H](CC(C)C)NC(=O)[C@H](CCCNC(N)=O)NC(=O)[C@H](CCC(N)=O)NC(=O)[C@@H](NC(=O)[C@@H](NC(=O)[C@@H]1CSSC[C@H](NC(=O)CN)C(=O)N[C@@H](CCCNC(=N)N)C(=O)N[C@@H]([C@@H](C)O)C(=O)NCC(=O)N[C@@H]([C@@H](C)O)C(=O)N1)[C@@H](C)O)C(C)C)C(=O)N[C@@H](Cc1ccc(O)cc1)C(=O)N[C@@H](CCC(N)=O)C(=O)N[C@@H](Cc1ccccc1)C(=O)N[C@H](C(=O)N[C@@H](CC(=O)O)C(=O)N[C@@H](CCCCN)C(=O)N[C@@H](CC(=O)O)C(=O)N[C@@H](CCCCN)C(=O)N[C@@H](CC(=O)O)C(=O)N[C@@H](CC(N)=O)C(=O)N[C@H](C(=O)N[C@@H](C)C(=O)N1CCC[C@H]1C(=O)N[C@@H](CCCNC(=N)N)C(=O)N[C@@H](CO)C(=O)N[C@@H](CC(N)=O)C(=O)N[C@H](C(=O)NCC(=O)N1CCC[C@H]1C(=O)N[C@@H](CCC(N)=O)C(=O)NCC(=O)N1C[C@H](O)C[C@H]1C(N)=O)C(C)C)C(C)C)[C@@H](C)O [compound 281] (H-GCRTGTCTVQ[Cit]LAHQIYQFTDKDKDNVAPRSNVGPQG[Hyp]-NH2; disulfide 2-7; N-terminus assumed)
> 5000 nM | 0.004 nM | 1.350% | CC[C@H](C)[C@H](NC(=O)[C@H](CCC(N)=O)NC(=O)[C@H](CC(=O)O)NC(=O)[C@H](C)NC(=O)[C@H](CC(C)C)NC(=O)[C@H](CCCNC(N)=O)NC(=O)[C@H](C)NC(=O)[C@@H](NC(=O)[C@@H](NC(=O)[C@@H]1CSSC[C@H](NC(=O)[C@@H](N)CCCCN)C(=O)N[C@@H](CC(N)=O)C(=O)N[C@@H]([C@@H](C)O)C(=O)N[C@@H](CO)C(=O)N[C@@H]([C@@H](C)O)C(=O)N1)[C@@H](C)O)C(C)C)C(=O)N[C@H](C(=O)N[C@@H](CCC(N)=O)C(=O)N[C@@H](Cc1ccccc1)C(=O)N[C@@H](CO)C(=O)N[C@@H](CC(=O)O)C(=O)N[C@@H](CCCCN)C(=O)N[C@@H](CC(=O)O)C(=O)N[C@@H](CCCCN)C(=O)N[C@@H](C)C(=O)N[C@@H](CC(N)=O)C(=O)N[C@H](C(=O)N[C@@H](CO)C(=O)N1CCC[C@H]1C(=O)N1CCC[C@H]1C(=O)N[C@H](C(=O)N[C@@H](CCC(=O)O)C(=O)N[C@H](C(=O)NCC(=O)N1CCC[C@H]1C(=O)N[C@@H](CC(N)=O)C(=O)N[C@@H](CO)C(=O)N1C[C@H](O)C[C@H]1C(N)=O)C(C)C)[C@@H](C)O)C(C)C)[C@@H](C)O [compound 247] (H-KCNTSTCTVA[Cit]LADQITQFSDKDKANVSPPTEVGPNS[Hyp]-NH2; disulfide 2-7; N-terminus assumed)
> 5000 nM | 0.006 nM | 15.600% | CC[C@H](C)[C@H](NC(=O)[C@H](CCC(N)=O)NC(=O)[C@H](Cc1c[nH]cn1)NC(=O)[C@H](C)NC(=O)[C@H](CC(C)C)NC(=O)[C@H](CCCNC(N)=O)NC(=O)[C@H](CCC(N)=O)NC(=O)[C@@H](NC(=O)[C@@H](NC(=O)[C@@H]1CSSC[C@H](NC(=O)[C@@H](N)CCCCN)C(=O)N[C@@H](CC(N)=O)C(=O)N[C@@H]([C@@H](C)O)C(=O)N[C@@H](C)C(=O)N[C@@H]([C@@H](C)O)C(=O)N1)[C@@H](C)O)C(C)C)C(=O)N[C@@H](Cc1ccc(O)cc1)C(=O)N[C@@H](CCC(N)=O)C(=O)N[C@@H](Cc1ccccc1)C(=O)N[C@@H](C)C(=O)N[C@@H](CC(=O)O)C(=O)N[C@@H](CCCCN)C(=O)N[C@@H](CC(=O)O)C(=O)N[C@@H](CCCCN)C(=O)N[C@@H](CC(=O)O)C(=O)N[C@@H](CC(N)=O)C(=O)N[C@H](C(=O)N[C@@H](C)C(=O)N1CCC[C@H]1C(=O)N1CCC[C@H]1C(=O)N[C@H](C(=O)N[C@@H](CC(N)=O)C(=O)N[C@H](C(=O)NCC(=O)N[C@@H](CO)C(=O)N[C@@H](CC(N)=O)C(=O)NCC(=O)N1C[C@H](O)C[C@H]1C(N)=O)C(C)C)[C@@H](C)O)C(C)C [compound 249] (H-KCNTATCTVQ[Cit]LAHQIYQFADKDKDNVAPPTNVGSNG[Hyp]-NH2; disulfide 2-7; N-terminus assumed)
> 5000 nM | 0.09 nM | 2.800% | CC[C@H](C)[C@H](NC(=O)[C@H](CCC(N)=O)NC(=O)[C@H](Cc1c[nH]cn1)NC(=O)[C@H](C)NC(=O)[C@H](CC(C)C)NC(=O)[C@H](CCCNC(=N)N)NC(=O)[C@H](CCC(N)=O)NC(=O)[C@@H](NC(=O)[C@@H](NC(=O)[C@@H]1CSSC[C@H](NC(=O)CN)C(=O)N[C@@H](CCCNC(=N)N)C(=O)N[C@@H]([C@@H](C)O)C(=O)NCC(=O)N[C@@H]([C@@H](C)O)C(=O)N1)[C@@H](C)O)C(C)C)C(=O)N[C@@H](Cc1ccc(O)cc1)C(=O)N[C@@H](CCC(N)=O)C(=O)N[C@@H](Cc1ccccc1)C(=O)N[C@H](C(=O)N[C@@H](CC(=O)O)C(=O)N[C@@H](CCCCN)C(=O)N[C@@H](Cc1ccccc1)C(=O)N[C@@H](CCCCN)C(=O)N[C@@H](CC(=O)O)C(=O)N[C@@H](CC(N)=O)C(=O)N[C@H](C(=O)N[C@@H](C)C(=O)N1CCC[C@H]1C(=O)N[C@@H](CCCNC(=N)N)C(=O)N[C@@H](CO)C(=O)N[C@@H](CCCCN)C(=O)N[C@H](C(=O)N[C@@H](CO)C(=O)N1CCC[C@H]1C(=O)N[C@@H](CCC(N)=O)C(=O)N[C@@H](Cc1c[nH]c2ccccc12)C(=O)N1C[C@H](O)C[C@H]1C(N)=O)[C@@H](C)CC)C(C)C)[C@@H](C)O [compound 185] (H-GCRTGTCTVQRLAHQIYQFTDKFKDNVAPRSKISPQW[Hyp]-NH2; disulfide 2-7; N-terminus assumed)
